Assay results: patent publication US4201860A, “Purine derivatives” (Bristol-Myers Company, priority 1979, dated 1980)

How the values were obtained:
platelet aggregation = conditions: in words; Chem Pharm. Bull., 25(7), 1811-1821 (1977); cited from earlier work
[1] = system: Arterial blood pressure (ABP); assay: In vivo hypotensive activity, arterial blood pressure (ABP) in anesthetized guinea pig; conditions: arterial blood pressure lowering (ED20, 20% reduction)
Method: Pharmac., 21, 379 (1969). The trachea of anesthetized guinea pig was cannulated and the ITP recorded on a polygraph under artificial ventilation. Arterial blood pressure (ABP; measure of hypotensive activity) was also measured during the experiment. Data was obtained for both intravenous and intraduodenal administration.

[2] = system: arterial blood pressure / intratracheal pressure; assay: Separation of bronchodilator and cardiovascular effects, ratio of hypotensive ED20 / bronchodilating ED50; type: in vivo, guinea pig
Method: The trachea of anesthetized guinea pig was cannulated and the ITP recorded on a polygraph under artificial ventilation. Arterial blood pressure (ABP; measure of hypotensive activity) was also measured during the experiment. Data was obtained for both intravenous and intraduodenal administration.
To assess the separation of desirable bronchodilator activity from undesirable cardiovascular (hypotensive) effect in the test compounds, the ratio of hypotensive ED20 /bronchodilating ED50 was calculated and indicated in Table 1.

[3] = in words; known disadvantages; cited from earlier work
[4] = in words; cited from earlier work

Row | SMILES | ABP lowering, ED20 (20% reduction) ([1]; Intravenous) | ABP/ITP ([2]; Intravenous) | other results
1 | Nc1nc(SC2CCCC2)nc2c1ncn2C1CCCC1 | – | – | platelet aggregation inhibition (platelet aggregation): slightly effective
2 | CCOc1nc(N)c2ncn(C3C=CCCC3)c2n1 (stereo not shown) [C2 H5 O] | 4.0 mg/kg | 12 | ABP lowering, ED20 (20% reduction) ([1]; Intraduodenal): 12 mg/kg; ABP/ITP ([2]; Intraduodenal): 19
3 | CCOc1nc(N)c2ncn(C3CCCCC3)c2n1 [C2 H5 O] | 2.5 mg/kg | 6.8 | –
4 | Nc1nc(Cl)nc2c1ncn2C1C=CCCC1 (stereo not shown) [Cl] | 2.5 mg/kg | 17 | –
5 | Cn1c(=O)c2[nH]cnc2n(C)c1=O [aminophylline] | – | – | side effects [3]: gastric irritation and cardiovascular and central nervous system side effects; solubility [4]: readily soluble
6 | CC(C)COc1nc(N)c2ncn(C3C=CCCC3)c2n1 (stereo not shown) [iso-C4 H9 O] | 2.4 mg/kg | – | –
7 | CC(C)COc1nc(N)c2ncn(C3CCCCC3)c2n1 [iso-C4 H9 O] | > 3 mg/kg | – | –
8 | CCCOc1nc(N)c2ncn(C3C=CCCC3)c2n1 (stereo not shown) [n-C3 H7 O] | 2.0 mg/kg | 5.9 | ABP lowering, ED20 (20% reduction) ([1]; Intraduodenal): 2.4 mg/kg; ABP/ITP ([2]; Intraduodenal): 2.0
9 | CCCOc1nc(N)c2ncn(C3CCCCC3)c2n1 [n-C3 H7 O] | 4.4 mg/kg | 12 | ABP lowering, ED20 (20% reduction) ([1]; Intraduodenal): 18 mg/kg; ABP/ITP ([2]; Intraduodenal): 15
10 | CCCCOc1nc(N)c2ncn(C3C=CCCC3)c2n1 (stereo not shown) [n-C4 H9 O] | > 3 mg/kg | > 4.8 | –
11 | CCCCOc1nc(N)c2ncn(C3CCCCC3)c2n1 [n-C4 H9 O] | 4.4 mg/kg | 1467 | ABP lowering, ED20 (20% reduction) ([1]; Intraduodenal): 8.3 mg/kg; ABP/ITP ([2]; Intraduodenal): 5.9
12 | CCCCCOc1nc(N)c2ncn(C3C=CCCC3)c2n1 (stereo not shown) [n-C5 H11 O] | > 3 mg/kg | – | –
13 | CCCCCOc1nc(N)c2ncn(C3CCCCC3)c2n1 [n-C5 H11 O] | > 3 mg/kg | – | –
14 | CCCCCCOc1nc(N)c2ncn(C3C=CCCC3)c2n1 (stereo not shown) [n-C6 H13 O] | 2.7 mg/kg | – | –
15 | CCCCCCOc1nc(N)c2ncn(C3CCCCC3)c2n1 [n-C6 H13 O] | > 3 mg/kg | – | –
